Test results from patent US9066887B2, “Transdermal therapeutic system having urea components” (LTS LOHMANN THERAPIE-SYSTEME AG, priority 2008, dated 2015).

Test: In vitro permeation from TTS in Franz diffusion cell
Details: TTS with 10% (m/m) active ingredient and 20% (m/m) solid urea of particle size >100 μm (B) versus TTS containing no urea (A); acrylate adhesive matrix; cow udder, 32° C., 72 h
Procedure: A commercial acrylate adhesive was dissolved in a solvent. […] This acrylate adhesive composition was cast to form a reservoir layer 500 μm in thickness, and the solvent was evaporated, producing a matrix basis weight of 100 g/m^2. A number of experimental TTS were punched from this active ingredient laminate, and were then used for experiments in vitro.
The Franz diffusion cell is composed of a donor compartment and an acceptor compartment, separated by a membrane (cow udder). The donor compartment contains the TTS, while, for the acceptor compartment, a physiological buffer was used, conditioned to a temperature of 32° C. Samples were taken from the acceptor compartment over a period of 72 h, and were analyzed by HPLC for the permeated amount of active ingredient.

Row | increase in active ingredient permeation through the skin (cumulative permeated amount), factor | SMILES
1 | 9 | c1ccc(Cn2c(N3CCNCC3)nc3ccccc32)cc1 [lerisetron]
2 | 4 | Clc1ccc2nsnc2c1NC1=NCCN1 [tizanidine]

Row | SMILES | increase in active ingredient permeation through the skin (cumulative permeated amount), factor
3 | Cn1c(=O)c2c(ncn2C)n(C)c1=O [caffeine] | 8
